Results: patent US10231956B2, “3-(1H-pyrrolo[3,2-C]pyridin-2-YL)-1 H-pyrazolo[4,3-B]pyridines and therapeutic uses thereof” (Samumed, LLC, priority 2015, dated 2019)

How the values were obtained:
Type in all cases: cell-based
[1] = test system: Wnt activity (Sp5-Luc reporter, SW480 colon carcinoma cells); assay: Sp5-Luc reporter gene screening assay for Wnt activity in SW480 cells; conditions: Homo sapiens; for EC50: luminescence, overnight incubation
Summary of the method: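 Luminescence read-out (BrightGlo) from stable Sp5-Luc SW480 cells, normalized to DMSO-only wells. Cells were treated overnight at 37° C in 1% FBS medium across a 1:3, 10-point series starting at 10 μM. EC50 from variable-slope four-parameter regression; percent inhibition at 10 μM given where EC50 >10 μM.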

[2] = test system: primary human mesenchymal stem cells (hMSCs); assay: Induction of chondrogenesis in primary human mesenchymal stem cells (nodule count); conditions: 144 h, 6 days; for Emax: TGF-β3 10 ng/mL as positive control, read-out: Max. Activity as % TGF-β3 activity; for EC50: concentration required to induce 50% levels of chondrogenesis vs TGF-β3, read-out: Conc (nM) of 50% TGF-β3 activity
Method: Representative compounds were screened using primary human mesenchymal stem cells (hMSCs) to determine their ability to induce chondrogenesis (process by which cartilage is developed).
Human Mesenchymal Stem Cell Culture: Primary human mesenchymal stem cells (hMSCs) were purchased from Lonza (Walkersville, Md.) and expanded in Mesenchymal Stem Cell Growth Media (Lonza). Cells between passage 3 and 6 were used for the experiments.
Compound Screening: Each compound was dissolved in DMSO as a 10 mM stock and used to prepare compound source plates. Serial dilution (1:3, 6-point dose-response curves from 2700 nM to 10 nM) and compound transfer was performed using the ECHO 550 (Labcyte, Sunnyvale, Calif.) into 96-well clear bottom assay plates (Greiner Bio-One) with appropriate DMSO backfill for a final DMSO concentration of 0.03%. hMSCs were plated at 20,000 cells/well in 250 μL/well Incomplete Chondrogenic Induction Medium (Lonza; DMEM, dexamethasone, ascorbate, insulin-transferrin-selenium [ITS supplement], gentamycin-amphotericin [GA-1000], sodium pyruvate, proline and L-glutamine). TGF-β3 (10 ng/mL) was used as a positive control for differentiation while negative control wells were treated with 75 nL DMSO for normalization and calculating EC50 values. Cells were incubated at 37° C. and 5% CO2 for 6 days. To image chondrogenic nodules, the cells were fixed using 4% formaldehyde (Electron Microscopy Sciences), and stained with 2 μg/mL Rhodamine B (Sigma-Aldrich) and 20 μM Nile Red (Sigma-Aldrich) [Johnson K., et. al, A Stem Cell-Based Approach to Cartilage Repair, Science, (2012), 336(6082), 717-721]. The nodules imaged (4 images per well at 4× magnification) by excitation at 531 nm and emission at 625 nm and quantified using the CellInsight CX5 (Thermo Scientific). Number of nodules in each well was normalized to the average of 3 DMSO treated wells on the same plate using Excel (Microsoft Inc.). The normalized averages (fold change over DMSO) of 3 replicate wells for each compound concentration were calculated. Due to solubility limitations of some of the compounds, curve fitting was incomplete leading to inaccurate EC50 determinations.
Using TGF-β3 as a positive control, the concentration of representative compounds required to induce 50% levels of chondrogenesis is reported. In addition, the maximum activity of each compound and the respective dose that each compound reached maximum chondrogenesis activity is reported.

SW480 colon cancer cells = assay: Cell viability assay (CellTiter-Blue) in SW480 colon cancer cells; conditions: Homo sapiens; for EC50: 96 h, four days, CellTiter-Blue; for inhibition at 10 µM: given for EC50 >10 μM, read-out: percent inhibition at 10 μM
Summary of the method: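 Resazurin reduction (Ex 560/Em 590 nm, ~3 h reagent incubation) served as the viability read-out after SW480 cells were treated for four days at 37 °C. Doses ran from 10 μM down to 0.0045 μM in eight 1:3 steps. Curves fitted non-linearly for EC50, else % inhibition at 10 μM reported.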

Cc1ncc(-c2ccc3[nH]nc(-c4cc5c(-c6ccncc6)nccc5[nH]4)c3n2)n1C [Compound 573, 5-(1,2-Dimethyl-1H-imidazol-5-yl)-3-(4-(pyridin-4-yl)-1H-pyrrolo[3,2-c]pyridin-2-yl)-1H-pyrazolo[4,3-b]pyridine]
EC50 [1]: 100 nM
Emax [2]: 104%
EC50 [2]: 30 nM
EC50 (SW480 colon cancer cells): > 10000 nM
inhibition at 10 µM (SW480 colon cancer cells): 25.6%

FC1(F)CCN(Cc2cncc(-c3ccc4[nH]nc(-c5cc6c(N7CCCCC7)nccc6[nH]5)c4n3)c2)C1 [Compound 194, 5-(5-((3,3-Difluoropyrrolidin-1-yl)methyl)pyridin-3-yl)-3-(4-(piperidin-1-yl)-1H-pyrrolo[3,2-c]pyridin-2-yl)-1H-pyrazolo[4,3-b]pyridine]
EC50 [1]: 3600 nM
Emax [2]: 123%
EC50 [2]: 30 nM
EC50 (SW480 colon cancer cells): 1900 nM

CS(=O)(=O)NCc1cc(F)cc(-c2nccc3[nH]c(-c4n[nH]c5ccc(-c6cncc(CN7CCC(F)(F)C7)c6)nc45)cc23)c1 [Compound 502, N-(3-(2-(5-(5-((3,3-Difluoropyrrolidin-1-yl)methyl)pyridin-3-yl)-1H-pyrazolo[4,3-b]pyridin-3-yl)-1H-pyrrolo[3,2-c]pyridin-4-yl)-5-fluorobenzyl) methanesulfonamide]
EC50 [1]: 502 nM
Emax [2]: 148%
EC50 [2]: 10 nM
EC50 (SW480 colon cancer cells): 810 nM

CC(C)CC(=O)Nc1cncc(-c2ccc3[nH]nc(-c4cc5c(-c6cc(F)cc(CNS(C)(=O)=O)c6)nccc5[nH]4)c3n2)c1 [Compound 478, N-(5-(3-(4-(3-Fluoro-5-(methylsulfonamidomethyl)phenyl)-1H-pyrrolo[3,2-c]pyridin-2-yl)-1H-pyrazolo[4,3-b]pyridin-5-yl)pyridin-3-yl)-3-methylbutanamide]
EC50 [1]: 624 nM
Emax [2]: 33%
EC50 (SW480 colon cancer cells): 921 nM

Fc1cccc(-c2nccc3[nH]c(-c4n[nH]c5ccc(-c6cncc(CN7CCCCC7)c6)nc45)cc23)c1 [Compound 15, 3-(4-(3-Fluorophenyl)-1H-pyrrolo[3,2-c]pyridin-2-yl)-5-(5-(piperidin-1-ylmethyl)pyridin-3-yl)-1H-pyrazolo[4,3-b]pyridine]
EC50 [1]: 3750 nM
Emax [2]: 48%
EC50 (SW480 colon cancer cells): 1140 nM

CS(=O)(=O)NCc1cc(F)cc(-c2nccc3[nH]c(-c4n[nH]c5ccc(-c6cncc(NC(=O)C7CCCCC7)c6)nc45)cc23)c1 [Compound 499, N-(5-(3-(4-(3-Fluoro-5-(methylsulfonamidomethyl)phenyl)-1H-pyrrolo[3,2-c]pyridin-2-yl)-1H-pyrazolo[4,3-b]pyridin-5-yl)pyridin-3-yl)cyclohexanecarboxamide]
EC50 [1]: 1140 nM
Emax [2]: 50%
EC50 [2]: 10 nM
EC50 (SW480 colon cancer cells): 1420 nM

Fc1ccc(-c2nccc3[nH]c(-c4n[nH]c5ccc(-c6cncc(OC7CCNCC7)c6)nc45)cc23)cc1 [Compound 528, 3-(4-(4-Fluorophenyl)-1H-pyrrolo[3,2-c]pyridin-2-yl)-5-(5-(piperidin-4-yloxy)pyridin-3-yl)-1H-pyrazolo[4,3-b]pyridine]
EC50 [1]: 3830 nM
Emax [2]: 54%
EC50 [2]: 10 nM
EC50 (SW480 colon cancer cells): 5220 nM

CN(C)Cc1cncc(-c2ccc3[nH]nc(-c4cc5c(-c6ccccc6F)nccc5[nH]4)c3n2)c1 [Compound 69, 1-(5-(3-(4-(2-Fluorophenyl)-1H-pyrrolo[3,2-c]pyridin-2-yl)-1H-pyrazolo [4,3-b]pyridin-5-yl)pyridin-3-yl)-N,N-dimethylmethanamine]
EC50 [1]: 1210 nM
Emax [2]: 7%
EC50 (SW480 colon cancer cells): 596 nM

c1cncc(-c2ccc3[nH]nc(-c4cc5c(N6CCCCC6)nccc5[nH]4)c3n2)c1 [Compound 172, 3-(4-(Piperidin-1-yl)-1H-pyrrolo[3,2-c]pyridin-2-yl)-5-(pyridin-3-yl)-1H-pyrazolo[4,3-b]pyridine]
EC50 [1]: 411 nM
Emax [2]: 29%
EC50 (SW480 colon cancer cells): 543 nM

c1cncc(-c2ccc3[nH]nc(-c4cc5cnccc5[nH]4)c3n2)c1 [Compound 256, 5-(Pyridin-3-yl)-3-(1H-pyrrolo[3,2-c]pyridin-2-yl)-1H-pyrazolo[4,3-b]pyridine]
EC50 [1]: 251 nM
Emax [2]: 119%
EC50 [2]: 900 nM
EC50 (SW480 colon cancer cells): 161 nM

CS(=O)(=O)NCc1cc(F)cc(-c2nccc3[nH]c(-c4n[nH]c5ccc(-c6cncnc6)nc45)cc23)c1 [Compound 503, N-(3-Fluoro-5-(2-(5-(pyrimidin-5-yl)-1H-pyrazolo[4,3-b]pyridin-3-yl)-1H-pyrrolo [3,2-c]pyridin-4-yl)benzyl)methanesulfonamide]
EC50 [1]: 745 nM
Emax [2]: 51%
EC50 [2]: 2700 nM
EC50 (SW480 colon cancer cells): > 10000 nM
inhibition at 10 µM (SW480 colon cancer cells): 15.3%

CCCCC(=O)Nc1cncc(-c2ccc3[nH]nc(-c4cc5c(N6CCCCC6)nccc5[nH]4)c3n2)c1 [Compound 187, N-(5-(3-(4-(Piperidin-1-yl)-1H-pyrrolo[3,2-c]pyridin-2-yl)-1H-pyrazolo[4,3-b]pyridin-5-yl)pyridin-3-yl)pentanamide]
inhibition at 10 µM ([1]; given for EC50 >10 μM, 10 μM, read-out: percent inhibition at 10 μM): 42.2%
EC50 [1]: > 10000 nM
Emax [2]: 54%
EC50 [2]: 30 nM
EC50 (SW480 colon cancer cells): 4460 nM

c1cc2[nH]c(-c3n[nH]c4ccc(-c5cncc(OC6CCCCC6)c5)nc34)cc2c(N2CCCCC2)n1 [Compound 607, 5-(5-(Cyclohexyloxy)pyridin-3-yl)-3-(4-(piperidin-1-yl)-1H-pyrrolo[3,2-c]pyridin-2-yl)-1H-pyrazolo[4,3-b]pyridine]
EC50 [1]: 2660 nM
Emax [2]: 163%
EC50 [2]: 10 nM
EC50 (SW480 colon cancer cells): 300 nM

CS(=O)(=O)NCc1cc(F)cc(-c2nccc3[nH]c(-c4n[nH]c5ccc(-c6cncc(NC(=O)C7CCCC7)c6)nc45)cc23)c1 [Compound 498, N-(5-(3-(4-(3-Fluoro-5-(methylsulfonamidomethyl)phenyl)-1H-pyrrolo[3,2-c]pyridin-2-yl)-1H-pyrazolo[4,3-b]pyridin-5-yl)pyridin-3-yl)cyclopentanecarboxamide]
EC50 [1]: 1310 nM
Emax [2]: 50%
EC50 [2]: 900 nM
EC50 (SW480 colon cancer cells): 1980 nM

c1cc2[nH]c(-c3n[nH]c4ccc(-c5cncnc5)nc34)cc2cn1 [Compound 279, 5-(Pyrimidin-5-yl)-3-(1H-pyrrolo[3,2-c]pyridin-2-yl)-1H-pyrazolo[4,3-b]pyridine]
EC50 [1]: 2350 nM
Emax [2]: 53%
EC50 [2]: 2700 nM
EC50 (SW480 colon cancer cells): 1470 nM

CN(C)Cc1cncc(-c2ccc3[nH]nc(-c4cc5cnccc5[nH]4)c3n2)c1 [Compound 265, 1-(5-(3-(1H-Pyrrolo[3,2-c]pyridin-2-yl)-1H-pyrazolo[4,3-b]pyridin-5-yl)pyridin-3-yl)-N,N-dimethylmethanamine]
EC50 [1]: 1690 nM
Emax [2]: 119%
EC50 [2]: 30 nM
EC50 (SW480 colon cancer cells): 907 nM

O=C(Nc1cncc(-c2ccc3[nH]nc(-c4cc5c(-c6ccccc6F)nccc5[nH]4)c3n2)c1)C1CC1 [Compound 76, N-(5-(3-(4-(2-Fluorophenyl)-1H-pyrrolo[3,2-c]pyridin-2-yl)-1H-pyrazolo [4,3-b]pyridin-5-yl)pyridin-3-yl)cyclopropanecarboxamide]
EC50 [1]: 687 nM
Emax [2]: 25%
EC50 (SW480 colon cancer cells): 596 nM

Cc1ccncc1-c1ccc2[nH]nc(-c3cc4c(N5CCN(C)CC5)nccc4[nH]3)c2n1 [Compound 229, 3-(4-(4-Methylpiperazin-1l-yl)-1H-pyrrolo[3,2-c]pyridin-2-yl)-5-(4-methylpyridin-3-yl)-1H-pyrazolo[4,3-b]pyridine]
EC50 [1]: 828 nM
Emax [2]: 87%
EC50 [2]: 2700 nM
EC50 (SW480 colon cancer cells): 824 nM

Fc1ccccc1-c1nccc2[nH]c(-c3n[nH]c4ccc(-c5cn[nH]c5)nc34)cc12 [Compound 539, 3-(4-(2-Fluorophenyl)-1H-pyrrolo[3,2-c]pyridin-2-yl)-5-(1H-pyrazol-4-yl)-1H-pyrazolo[4,3-b]pyridine]
EC50 [1]: 590 nM
Emax [2]: 174%
EC50 [2]: 100 nM
EC50 (SW480 colon cancer cells): 1270 nM
